GI50 and TGI data for eight molecules are collected here from PubChem BioAssay (NCI).

Several values for one entry are separate records, joined by “and”; a condition that tells them apart may be missing. Identical values can stand only once.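 All cell lines were grown in 96-well plates and treated with compound for 48 hours. GI50: concentration for 50% inhibition of growth. At the TGI there is no net growth.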

Among the test systems are BT-549 breast; CCRF-CEM leukemia; COLO 205 colon; DU-145 prostate; EKVX NSCLC; HT29 colon; NCI-H226 lung; OVCAR-8 ovarian; SF-295 CNS; SK-MEL-5 melanoma.
Common to all, as to assay: inhibition of tumour cell growth, NCI panel, 48 h

In the case of `CCc1ccc2c(c1)N(CCO)C1=C(C(=O)OC1)C2c1cc(OC)c(OC)c(OC)c1` (stereo not drawn), the GI50 was 0.564 µM in the assay with BT-549 breast; 0.185 µM in the assay on CCRF-CEM leukemia; 0.151 µM in the assay with COLO 205 colon; 0.174 µM with DU-145 prostate; 1.17 µM with EKVX NSCLC; 0.143 µM with HT29 colon. For the same molecule, the GI50 with NCI-H226 lung is 0.178 µM; in the assay on OVCAR-8 ovarian, 0.184 µM; with SF-295 CNS, 0.126 µM; in the assay with SK-MEL-5 melanoma, 0.126 µM. The TGI was > 15.7 µM in the assay with BT-549 breast; > 50 µM in the assay with CCRF-CEM leukemia; 0.437 µM with COLO 205 colon; 0.856 µM in the assay with DU-145 prostate; > 50 µM with EKVX NSCLC; 0.447 µM in the assay with HT29 colon. In addition, the TGI in the assay with NCI-H226 lung worked out at 2.44 µM; in the assay with OVCAR-8 ovarian, 1.22 µM; in the assay with SF-295 CNS it was 0.469 µM; in the assay on SK-MEL-5 melanoma, 0.581 µM.
With `C=C1CC[C@H]2C(C)=CC[C@H]3C(=C)C(=O)O[C@@H]3[C@@H]12`, the TGI in the assay on BT-549 breast, in the assay on CCRF-CEM leukemia, with COLO 205 colon, with DU-145 prostate, with EKVX NSCLC and in the assay with HT29 colon was > 100 µM each time. For the same molecule, the TGI in the assay on NCI-H226 lung, with OVCAR-8 ovarian, in the assay with SF-295 CNS and in the assay on SK-MEL-5 melanoma was > 100 µM in each case.
With `CCOC(=O)c1c(CN2CCN(C)CC2)nc2ccc(Cl)cc2c1-c1ccccc1`, the GI50 is 7.1 µM with BT-549 breast; 7.17 µM with CCRF-CEM leukemia; 1.71 µM in the assay on COLO 205 colon; 13.7 µM in the assay with DU-145 prostate; 8.02 µM in the assay on EKVX NSCLC; 2.28 µM with HT29 colon. Moreover, the GI50 in the assay on NCI-H226 lung is 15.6 µM; in the assay with OVCAR-8 ovarian, 15.2 µM; in the assay with SF-295 CNS, 3.27 µM; in the assay with SK-MEL-5 melanoma, 1.72 µM. In addition, the TGI with BT-549 breast is 20.8 µM; in the assay on CCRF-CEM leukemia it was 28.9 µM; in the assay on COLO 205 colon, 3.57 µM; with DU-145 prostate it was 26.7 µM; in the assay with EKVX NSCLC it was 25 µM; in the assay on HT29 colon it was 6.16 µM. Moreover, the TGI was determined as 34.9 µM with NCI-H226 lung, 29.6 µM in the assay on OVCAR-8 ovarian, 9.95 µM with SF-295 CNS and 3.18 µM with SK-MEL-5 melanoma.
On to `C[C@@H]1CCc2ncc(F)cc2[C@H]2CCCN2c2ccn3ncc(c3n2)C(=O)N1`, for which the GI50 in the assay with BT-549 breast is 69.8 µM; with CCRF-CEM leukemia it was > 100 µM; in the assay with COLO 205 colon, 75.9 µM; with DU-145 prostate, 73.7 µM; in the assay with EKVX NSCLC, 48.8 µM; in the assay with HT29 colon, 68.3 µM. Also, the GI50 is 28.3 µM in the assay on NCI-H226 lung, > 100 µM in the assay on OVCAR-8 ovarian, 60.6 µM with SF-295 CNS and > 100 µM in the assay with SK-MEL-5 melanoma. Further, the TGI in the assay on BT-549 breast, in the assay with CCRF-CEM leukemia, in the assay with COLO 205 colon, with DU-145 prostate, with EKVX NSCLC and in the assay on HT29 colon was > 100 µM each time. In addition, the TGI in the assay with NCI-H226 lung, in the assay on OVCAR-8 ovarian, in the assay on SF-295 CNS and in the assay on SK-MEL-5 melanoma was > 100 µM throughout.
As to `NC(=O)/C(=C/n1cnc(-c2cc(C(F)(F)F)cc(C(F)(F)F)c2)n1)c1cncnc1`, the GI50 is 0.12 µM with BT-549 breast; 0.231 µM in the assay with CCRF-CEM leukemia; 0.124 µM with COLO 205 colon; 0.625 µM in the assay on DU-145 prostate; 0.566 µM with EKVX NSCLC; 0.422 µM in the assay on HT29 colon. The GI50 with NCI-H226 lung was 0.286 µM; in the assay with OVCAR-8 ovarian, 0.329 µM; in the assay on SF-295 CNS it was 0.667 µM; in the assay with SK-MEL-5 melanoma, 1.13 µM. In addition, the TGI with BT-549 breast is 2.98 µM; in the assay on CCRF-CEM leukemia, 14.4 µM; in the assay with COLO 205 colon, 11.5 µM; in the assay with DU-145 prostate, 12.2 µM; with EKVX NSCLC it was 20.8 µM; with HT29 colon, 16.3 µM. For the same molecule, the TGI with NCI-H226 lung was 7.73 µM; with OVCAR-8 ovarian, 18.2 µM; in the assay on SF-295 CNS, 17.1 µM; in the assay on SK-MEL-5 melanoma it was 10.2 µM.
`CC(=O)OCC1OC(n2c3c(cc(C#N)c2=S)CCCC3)C(OC(C)=O)C(OC(C)=O)C1OC(C)=O` (stereo not drawn): the TGI in the assay with BT-549 breast is > 100 µM; with CCRF-CEM leukemia, > 100 µM; with COLO 205 colon, > 100 µM; in the assay on DU-145 prostate it was > 100 µM; with EKVX NSCLC, > 100 µM; in the assay on HT29 colon, 83.9 µM and > 100 µM. Besides, the TGI with NCI-H226 lung is > 100 µM; in the assay on OVCAR-8 ovarian, > 100 µM; with SF-295 CNS, > 100 µM and 48.4 µM; in the assay with SK-MEL-5 melanoma, > 100 µM. Further, the GI50 with CCRF-CEM leukemia is 43.2 µM and > 100 µM; in the assay with HT29 colon, 26.7 µM and > 100 µM; with SF-295 CNS, > 100 µM and 19.7 µM.
For `O=NNc1ccc(S(=O)(=O)c2ccc3ccccc3c2)cn1`, the TGI with BT-549 breast, in the assay on CCRF-CEM leukemia, with COLO 205 colon, in the assay with DU-145 prostate, with EKVX NSCLC and in the assay with HT29 colon was > 100 µM in each case. The TGI in the assay on NCI-H226 lung, in the assay with OVCAR-8 ovarian, with SF-295 CNS and in the assay with SK-MEL-5 melanoma was > 100 µM throughout.
`C#C[C@]1(O)CC[C@H]2[C@@H]3CC=C4c5nc(N)sc5CC[C@]4(C)[C@H]3CC[C@@]21C`: the GI50 is 1.97 µM in the assay with BT-549 breast; 2.79 µM with CCRF-CEM leukemia; 3.66 µM with COLO 205 colon; 5.19 µM in the assay on DU-145 prostate; 5.47 µM with EKVX NSCLC; 3.04 µM in the assay with HT29 colon. Also, the GI50 in the assay with NCI-H226 lung is 2.76 µM; with OVCAR-8 ovarian it was 9.12 µM; in the assay on SF-295 CNS it was 1.98 µM; with SK-MEL-5 melanoma it was 1.91 µM. Further, the TGI worked out at 6.26 µM in the assay on BT-549 breast; 14.9 µM in the assay with CCRF-CEM leukemia; 15.8 µM in the assay on COLO 205 colon; 20.8 µM in the assay on DU-145 prostate; 50.9 µM with EKVX NSCLC; 12.4 µM with HT29 colon. Besides, the TGI with NCI-H226 lung turned out to be 7.56 µM; in the assay on OVCAR-8 ovarian, 56.1 µM; with SF-295 CNS, 4.05 µM; in the assay with SK-MEL-5 melanoma, 3.63 µM.
